Earlier results in patent publication US20230255953A1, “USE OF ROLUPERIDONE IN PREVENTING RELAPSE IN SCHIZOPHRENIA PATIENTS” (Minerva Neurosciences, Inc., priority 2022, published 2023).
Read-outs that look alike come from different tables or passages of the source.

Experiments:
[1] = system: patients with schizophrenia; conditions: Durgam et al. 2016; cited from earlier work
chronic schizophrenia = conditions: Arato et al. 2002 (ZEUS), cited from earlier work

Structure (SMILES)	Relapse rate [1]	Relapse rate after one year (chronic schizophrenia; 40 mg/day)	Relapse rate after one year (chronic schizophrenia; 80 mg/day)	Relapse rate after one year (chronic schizophrenia; 160 mg/day)
CN(C)C(=O)N[C@H]1CC[C@H](CCN2CCN(c3cccc(Cl)c3Cl)CC2)CC1 [cariprazine]	24.8%	–	–	–
O=C1Cc2cc(CCN3CCN(c4nsc5ccccc45)CC3)c(Cl)cc2N1 [ziprasidone]	–	43%	35%	36%
